Measured values from US11492667B2, “Compositions and methods for detecting molecular targets on chromosomal DNA” (New England Biolabs, Inc., priority 2020, dated 2022).

Key:
[1] = test system: Nt.CviPII-Protein A fusion; assay: Inhibition of nicking activity of Nt.CviPII-Protein A fusion by heparin sodium salt; type: biochemical; settings: 2.5 units Nt.CviPII-Protein A, 0.5 μg pUC19, NEBuffer 2, 40 minutes 37° C.
Description: In lanes 1-9, 2.5 units of NEFP was added to 0.5 μgs of plasmid DNA in the presence of increasing amounts of heparin (0.15-10 mg/ml). Digestion was not observed when 0.3 mg heparin/ml or greater amounts are present.
To determine the effect of heparin sodium salt on the inhibition of nicking activities of Nt.CviPII-Protein A fusion, reaction tubes containing 10, 5, 2.5, 1.25, 0.62, 0.31, 0.15, and 0 mg/ml heparin, sodium salt were added to a 50 μl reaction, consisting of 5 μl 10×NEBuffer 2, 2.5 units Nt.CviPII-Protein A (as described in Example 1(B)), and 0.5 μg pUC19 DNA and incubated for 40 minutes 37° C. 10 μl of DNA loading dye mix (5×) was added to the samples and were resolved on a 10% polyacrylamide gel. The gel was stained with SYBR® Green (Molecular Probes, Eugene, Oreg.) and scanned on a Typhoon® imager (GE Healthcare Bio-Sciences, Marlborough, Mass.).

[2] = test system: DNA-Nt.CviPII-Protein A complex; assay: Gel-shift assay: dissociation of DNA-Nt.CviPII-Protein A complex by heparin; type: binding
Description: From left to right: C is a control that is DNA in the absence of a NEFP or heparin. 0 is a control in which nicking endonuclease was added to DNA in the absence of heparin. The DNA-NEFP complex (DNA-Nt.CviPII-Protein A complex) is seen as a band at the top of the lane.
To establish that the inhibitory effect of heparin, sodium salt in untethered Nt.CviPII-Protein A fusion activity was due to selective dissociation between DNA substrate and fusion enzyme, a gel-shift assay was performed. Double stranded DNA substrate containing constant amounts of Nt.CviPII binding domains (CCA, 5′[…]-F, F=fluorescein (SEQ ID NO:9)) and 3.2 μM Nt.CviPII-Protein A fusion were combined in the presence of 1×NEBuffer 2 in the absence of magnesium for 30 minutes at room temperature to enable an enzyme-substrate complex to be formed. Increasing amounts of heparin, sodium salt (0, 2.3, 4.6, […], 20, 42, 83, 166, 330 μg/ml) was added to the total 50 μl reaction volume. It was observed that a heparin concentration of greater than 0.2 mgs/ml (at least […]) enabled complete dissociation of the DNA-Nt.CviPII-Protein A complex as observed by the appearance of bands corresponding to DNA alone in a native 6% retardation gel (Thermo Fisher Scientific, Waltham, Mass.). It was concluded that Heparin causes dissociation Nt.CviPII-Protein A fusions from the bound substrate DNA (FIG. 2B).

[3] = test system: antibody-Protein A/G complex; assay: Effect of heparin on antibody-Protein A/G complex (magnetic beads, SDS gel); type: binding; settings: 0.125, 0.25, 0.5 and 1 mg/ml Heparin, 30 minutes, room temperature, Sodium Salt
Text: The numbers on the top indicate added heparin quantity in the reaction mgs/ml.
Antibody heavy and light chains that are bound to Protein A/G can be released by boiling and resolved on an SDS gel (B). Any antibody that was free in solution having been eluted or displaced by heparin from Protein A/G could be visualized without boiling (E).
To determine the effect of heparin on the formation of the antibody-Protein A/G complex, 5 mgs of immobilized and covalently cross-linked protein A/G magnetic beads were bound to 50 μgs of IgG molecules in a 50 μl reaction volume containing 1×PBST at room temperature for 30 minutes. The complex was washed 3 times using 1 ml of 1×PBST and incubated with 0.125, 0.25, 0.5 and 1 mg/ml Heparin for 30 minutes at room temperature in 25 μl total volume. The bead-bound (B) and unbound or bead elution (E) fractions were collected, SDS sample buffer (New England Biolabs, Ipswich, Mass.) was added and the samples were incubated at 95° C. for 5 minutes. Both B and E samples were resolved on tricine 10% acrylamide gel and stained for protein.

[4] = test system: pBR322 circular double stranded DNA; assay: Nicking activity of Protein G/A-gHNH fusion on plasmid DNA (agarose gel); type: biochemical; settings: 1 μg pBR322, NEBuffer 2 with manganese ions, 50 μl, 37° C., 1 hour
Description: The nicking activity of Protein G-HNH was compared to a second non-fused nicking endonuclease (Nt.CviPII) (2 units) in the same gel to determine a generalized and consistent cleavage profile and was also compared to a control in the lane labeled 0 containing no nicking endonuclease either fused or unfused.
Protein G/A-gHNH fusion nicking activity was tested on pBR322 circular double stranded DNA using NEBuffer 2 in which magnesium ions were replaced by the same amount of manganese ions (1 mM). 1 μg of plasmid was used with 0.03 to 2 units of Protein G/A-gHNH fusion enzyme in a two-fold serial dilutions (2, 1, 0.5, 0.25, 0.125, 0.06, 0.03 units) in a total volume of 50 μl incubated at 37° C. for 1 hour. 10 μl of DNA loading dye mix (5×) was added to the nicked DNA. The nicked DNA samples were resolved on a 1% agarose gel and visualized under UV light. DNA fragment size was estimated along with 2 log DNA ladder (New England Biolabs, Ipswich, Mass.) and positive control Nt.CviPII (2 units) of the non-fused nicking endonuclease, (New England Biolabs, Ipswich, Mass.) digested pBR322 DNA (FIG. 1B). […] A representative figure supporting this conclusion is provided in FIG. 1B for Protein G-gHNH fusions.

Sequence of Nt.CviPII-Protein A fusion (as listed by the source): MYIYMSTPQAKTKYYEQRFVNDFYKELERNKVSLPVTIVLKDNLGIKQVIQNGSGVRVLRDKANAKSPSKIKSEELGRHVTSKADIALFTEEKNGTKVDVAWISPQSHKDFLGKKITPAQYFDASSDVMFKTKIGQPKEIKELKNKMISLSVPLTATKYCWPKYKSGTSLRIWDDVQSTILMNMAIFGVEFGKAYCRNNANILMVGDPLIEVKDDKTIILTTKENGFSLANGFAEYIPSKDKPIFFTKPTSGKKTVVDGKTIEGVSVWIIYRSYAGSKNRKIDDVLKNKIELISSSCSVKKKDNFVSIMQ

## Heparin Sodium Salt
[1]
  heparin concentration giving total inhibition of nicking (no digestion): 0.15 to 0.31 mg/mL
[1]; listed as heparin
  heparin concentration giving total inhibition of nicking (no digestion): ≥ 0.3 mg/mL
[2]; 3.2 μM Nt.CviPII-Protein A, fluorescein dsDNA, NEBuffer 2 without magnesium, room temperature
  heparin concentration enabling complete dissociation of the DNA-Nt.CviPII-Protein A complex: greater than 0.2 mgs/ml
[2]; FIG. 2B legend, buffer without magnesium ions
  heparin concentration at which NEFP is released entirely from the DNA: > 4.6 mg/mL
[3]; listed as Heparin
  effect of heparin on antibody bound to Protein A/G beads: cannot dissociate Protein A/G-antibody reaction
[3]; listed as heparin
  effect of heparin on antibody bound to Protein A/G beads: no elution or displacement of antibody occurred

B1: Protein G-gHNH: NEFP: Protein G fused via linker to gHNH nicking endonuclease, SEQ ID NO: 5 (protein)
chain: MKGETTTEAVDAATAEKVFKQYANDNGVDGEWTYDDATKTFTVTEKPEVIDASELTPAVTTYKLVINGKTLKGETTTEAVDAATAEKVFKQYANDNGVDGEWTYDDATKTFTVTEKPEVIDASELTPAVTTYKLVINGKTLKGETTTKAVDAETAEKAFKQYANDNGVDGVWTYDDATKTFTVTEGSATIVKKPLRPCCEFHCYNLTRERYCEEHRYKEKETQQDKNRYYDRFKRDKESTAFYRSKAWERLREQALMRDKGLCLHCKNNRKIKVADMVDHIIPIKVDPSLKLKLENLQSLCNPCHNRKTAEDKKKYG
[4]
  amount of fusion enzyme giving partial digestion of the DNA: 0.03 units
